Measurements taken from US10456405B2, “Nitric oxide-releasing prodrug molecule of substituted quinazolines” (ZHEJIANG HUAHAI PHARMACEUTICAL CO., LTD, priority 2015, dated 2019).

What was measured:
[1] = Release of HNO (headspace gas chromatography of nitrous oxide); details: for Molar Quantities of N2O/Sample: PBS pH 7.4, 37° C., argon, 90 min
Protocol: Experiment 2. Experimental study on the tested compounds for releasing HNO HNO rapidly dimerizes and dehydrates to produce nitrous oxide in aqueous solution. In the experiment of detecting HNO, gas chromatographic headspace analysis is generally used to determine the amount of the released nitrous oxide, thereby indirectly detect the level of releasing HNO of the compound.
Experimental procedure: Each of the tested compounds was prepared to 20 mg/mL of mother liquor with DMF. Prior to the start of the experiment, 50 μL of drug mother liquor was placed into a 20 mL headspace sample vial. The tested compound was diluted by adding 5 mL of PBS buffer with pH 7.4. The temperature of the resulting sample was kept at 37° C. under argon gas for 90 min. Then the top gas was extracted for gas chromatographic analysis of nitrous oxide by using Angeli's Salt as a positive compound in the experiment.

[2] = Release of nitric oxide in vitro (Griess reagent, nitrite); details: for Amount of Released No: 10^−4 mol/L tested substance, phosphate buffer pH 7.4, cysteine 5 mmol/L, 37° C., 1 h, as nitrite
Protocol: Experiment 1. Experimental Study on the Tested Compounds for Releasing Nitric Oxide in vitro
Experimental Procedure: • (1) Preparation of Griess Reagent: 4 g of aminobenzenesulfonamide, 0.2 g of N-naphthyl ethylene diamine hydrochloride, and 10 mL of 85% phosphoric acid solution were taken to form a solution, which is diluted to 100 mL with distilled water. • (2) Plotting of the standard curve: a serie of standard solution of 0.01, 0.03, 0.05, 0.07, 0.09, 0.2, 0.4 μg/mL of nitrite nitrogen was prepared, 10 mL of each was taken to sufficiently mix with 2.5 mL of Griess reagent, standing at room temperature for 10 min, and its absorbance value at the wavelength of 540 nm was measured. The standard curve was plotted based on the resulting data. • (3) Measuring the amount of the released NO of the tested drug: all of the tested substances were dissolved in dimethylsulfoxide (1 mL) firstly. Then phosphate buffer (pH 7.4) was slowly added dropwise, and shaken. The drug solution was diluted to 50 mL, allowing the buffer solution to contain excess cysteine (5 mmol/L), and the final concentration of the tested substances being 10^−4 mol/L; the solution was incubated at 37° C. 2 mL of the reaction solution was taken to mix with 500 μl of Griess reagent at 1 h respectively, standing at room temperature for 10 min. The absorbance value of the mixture at 540 nm was measured. Isosorbide mononitrate was used as a positive control, and H130 was used as a negative control. The amount of the released NO was represented by the amount of its oxidation product, nitrite (NO2^−).

[3] = Plasma stability in vitro, mouse plasma; details: CD-1 mice plasma, 2 μM, 37° C., in % (unit assumed)
Protocol: (§1) Experimental method: The tested compounds (2 μM) were added into mouse or human plasma, and incubated at 37° C. Samples were taken at 0, 10, 30, 60 and 120 min respectively. The reaction was stopped by adding a stop agent. The mixture was sufficient shaken, and centrifuged at 4000 rpm for 10 min at 4° C. The supernatant was taken. The concentrations of the tested compounds and their metabolite (H130) in the supernatant were measured by LC-MS/MS.

[4] = Plasma stability in vitro, human plasma; details: for Content of Tested Substance (n = 2): human plasma, 2 μM, 37° C., in % (unit assumed); for stability in human plasma: within 2 h
Protocol: as §1

apoE−/− mice = test: apoE−/− mouse atherosclerosis model, high-fat diet 10 weeks; assay type: in vivo
From the text: Experimental method: 36 eight-week-old male apoE-/- mice were selected and randomly divided into a blank administration group, an […] administration group, an […] administration group, an […] administration group, an […] administration group, and an […] administration group, 6 mice per group. The mice in each group were fed with high-fat diet for 10 weeks. At the beginning of the high-fat feeding, the mice in each group were administrated. Each tested compound was intragastric administered at the dose of 150 mg/kg twice a day. The blank administration group was given corresponding dose of saline. […] After the blood was taken, the serum, heart, and aorta were isolated. The levels of total cholesterol (TC), high density lipoprotein cholesterol (HDL-C), and low density lipoprotein cholesterol (LDL-C) in the serum of the mice in each group were measured by automatic biochemical analyzer. The ApoA1 expression level was detected with an ApoA1 kit. The content of NO in the serum of the mice was determined with a total NO test kit (Beyotime). The NOS activities of the heart, aorta, and serum were determined with an NOS test kit (Beyotime). The content of eNOS was calculated by the difference between the measured values determined before and after adding eNOS inhibitor L-NAME (Beyotime).

db/db mice = test: Serum NO and heart eNOS in db/db mice after oral gavage; assay type: in vivo; details: blank = 100, oral gavage 150 mg/kg (isosorbide mononitrate 5 mg/kg), 1 h after administration (H101: 2 h)
From the text: Experimental method: 25 eight-week-old db/db mice (strain: BKS.Cg−+Leprdb/+leprdb/JclSlac; grade: SPF; gender: male; source: Shanghai SLAC Laboratory Animal Co., Ltd.) were selected. 3 of them were selected as the blank administration control. 2 mice were used as the positive drug control (isosorbide mononitrate). The remaining 20 mice were randomly divided into 5 groups, 4 mice per group, which are H101 administration group, H111 administration group, H116 administration group, H119 administration group, and H130 administration group. The tested compounds of the positive drug control group and each administration group were dissolved in DMSO. Then PEG400 was added. The mixture was shaken and mixed thoroughly. At last, 10% of HP-β-CD was added. The mixture was shaken and mixed thoroughly. The ratio of each solvent was DMSO: PEG400:10% of HP-β-CD=5:67.5:27.5. The administration group was administered by oral gavage at the dose of 150 mg/kg. The positive drug control group was administered at the dose of 5 mg/kg. The mice in the H101 administration group were sacrificed at 2 h after the administration. The mice in the remaining administration groups were sacrificed at 1 h after the administration. The blood was collected respectively into 1.5 mL centrifuge tube, standing at room temperature for more than 30 min, and then centrifuged (3000 rpm, 10 min). The supernatant serum was aspirated, and stored at −80° C. for testing. After the blood was collected, the heart was cut with the thoracic aorta. Three parts of the heart were weighed and placed into cryovials, rapidly frozen in liquid nitrogen, and cryopreserved at −80° C. for testing. The aorta and aortic arch were weighed, rapidly frozen in liquid nitrogen, and cryopreserved at −80° C. for testing. The content of NO in the serum of the […] mice was determined by a total NO test kit (Beyotime). The content of NOS in the heart of the mice was determined with an NOS test kit (Beyotime). The content of eNOS was calculated by the difference between the measured values before and after adding the eNOS inhibitor L-NAME (Beyotime).

[5] = blank administration group = 100, 150 mg/kg twice a day, 10 weeks
[6] = serum, high-fat diet 10 weeks, intragastric 150 mg/kg twice a day

**Q.** With “2-(N-((2-(4-(5,7-dimethoxy-4-oxo-3,4-dihydro-quinazolin-2-yl)-2,6-dimethyl-phenoxy]-ethoxy) carbonyl)oxy)sulfamoyl)-1-methyl-1H-pyridine 1-2-onium salt [Compound H122]” as the compound, how does the “Molar Quantities of N2O/Sample” value [1] read?
**A.** Its value is 18.3%.

**Q.** For “3-(nitroxy)-2,2-di(nitroxymethyl) propyl 4-(2-[4-(5,7-dimethoxy-4-oxo-3,4-dihydro-quinazolin-2-yl)-2,6-dimethyl-phenoxy] butyl)-4-oxo-2-acetamino-butyrate [Compound H124]”, which “Amount of Released No” value [2] is on record?
**A.** Its value is 2.89 µM.

**Q.** For [Na+].[Na+].[O-][N+]([O-])=NO [Angeli's Salt, reference compound], which “Molar Quantities of N2O/Sample” value [1] is on record?
**A.** Its value is 62.4%.

**Q.** With COc1cc(OC)c2c(=O)[nH]c(-c3cc(C)c(OCCOC(=O)c4cccc(CO[N+](=O)[O-])c4)c(C)c3)nc2c1 [Compound H102, 2-[4-(5,7-dimethoxy-4-oxo-3,4-dihydro-quinazolin-2-yl)-2,6-dimethyl-phenoxy]-ethyl 3-nitroxymethyl-benzoate] as the compound, how does the “time after which NO is produced” value [2] read?
**A.** Its value is at least 2 h.

**Q.** And the “Amount of Released No” value [2]?
**A.** The value was -0.55 µM.

**Q.** What about the “NO release detected within 1 h” value ([2]; within 1 h) of the same compound?
**A.** The value was “does not produce NO within 1 h”.

**Q.** What about the “Content of Tested Substance (n = 2)” value ([3]; 0 min) of the same compound?
**A.** Its value is 100.0.

**Q.** What about the “Content of Tested Substance (n = 2)” value ([3]; 10 min) of the same compound?
**A.** Its value is 10.8.

**Q.** What about the “Content of Tested Substance (n = 2)” value ([3]; 30 min) of the same compound?
**A.** Its value is 1.3.

**Q.** What about the “Content of Tested Substance (n = 2)” value ([3]; 60 min) of the same compound?
**A.** The value was 3.1.

**Q.** What about the “Content of Tested Substance (n = 2)” value ([3]; 120 min) of the same compound?
**A.** The value was 1.8.

**Q.** And the “Content of Tested Substance (n = 2)” value ([4]; 0 min)?
**A.** Its value is 100.0.

**Q.** And the “Content of Tested Substance (n = 2)” value ([4]; 10 min)?
**A.** Its value is 101.5.

**Q.** What about the “Content of Tested Substance (n = 2)” value ([4]; 30 min) of the same compound?
**A.** The value was 98.4.

**Q.** What about the “Content of Tested Substance (n = 2)” value ([4]; 60 min) of the same compound?
**A.** Its value is 95.0.

**Q.** And the “Content of Tested Substance (n = 2)” value ([4]; 120 min)?
**A.** The value was 84.5.

**Q.** What about the “stability in human plasma” value [4] of the same compound?
**A.** Its value is “good stability”.

**Q.** What does the source list for COc1cc(OC)c2c(=O)[nH]c(-c3cc(C)c(OCCOC(=O)ONS(=O)(=O)c4ccc(C)s4)c(C)c3)nc2c1 [Compound H103, N-((2-(4-(5,7-dimethoxy-4-oxo-3,4-dihydroquinazolin-2-yl)-2,6-dimethylphenoxy)ethoxy)carbonyloxy)-5-methylthiophene-2-sulfonamide]?
**A.** Molar Quantities of N2O/Sample [1]: 19.7%; Content of Tested Substance (n = 2) ([3]; 0 min): 100.0; Content of Tested Substance (n = 2) ([3]; 10 min): 0.0; Content of Tested Substance (n = 2) ([3]; 30 min): 0.0; Content of Tested Substance (n = 2) ([3]; 60 min): 0.0; Content of Tested Substance (n = 2) ([3]; 120 min): 0.0; Content of Tested Substance (n = 2) ([4]; 0 min): 100.0; Content of Tested Substance (n = 2) ([4]; 10 min): 97.3; Content of Tested Substance (n = 2) ([4]; 30 min): 89.6; Content of Tested Substance (n = 2) ([4]; 60 min): 83.3; Content of Tested Substance (n = 2) ([4]; 120 min): 86.9; stability in human plasma [4]: good stability

**Q.** Which “Amount of Released No” value [2] does the source give for COc1cc(OC)c2c(=O)[nH]c(-c3cc(C)c(OCCOC(=O)C(O)CC(=O)OCc4c(-c5ccccc5)no[n+]4[O-])c(C)c3)nc2c1 (centres unmarked) [Compound H113, 2-[4-(5,7-dimethoxy-4-oxo-3,4-dihydro-quinazolin-2-yl)-2,6-dimethyl-phenoxy]-ethyl (2-oxo-4-phenyl-furazan-3-yl)-methyl 2-hydroxy succinate] here?
**A.** Its value is 45.63 µM.

**Q.** For COc1cc(OC)c2c(=O)[nH]c(-c3cc(C)c(OCCOC(=O)/C=C/C(=O)ONS(=O)(=O)c4ccco4)c(C)c3)nc2c1 [Compound H115, 2-[4-(5,7-dimethoxy-4-oxo-3,4-dihydro-quinazolin-2-yl)-2,6-dimethyl-phenoxy]-ethyl (E)-4-((furan-2-sulfonylamino)oxy)-4-oxo-2-crotonate], which “Molar Quantities of N2O/Sample” value [1] is on record?
**A.** The value was 17.8%.

**Q.** For COc1cc(OC)c2c(=O)[nH]c(-c3cc(C)c(OCCOC(=O)CCC(=O)N4CCN(CCO[N+](=O)[O-])CC4)c(C)c3)nc2c1 [Compound H117, 2-[4-(5,7-dimethoxy-4-oxo-3,4-dihydro-quinazolin-2-yl)-2,6-dimethyl-phenoxy]-ethyl 4-[4-(2-(nitroxy)ethyl)-piperazin-1-ly]-4-oxo-butyrate], which “Amount of Released No” value [2] is on record?
**A.** Its value is 1.36 µM.

**Q.** With COc1cc(OC)c2c(=O)[nH]c(-c3cc(C)c(OCCOC(=O)NC4COC5C(O[N+](=O)[O-])COC45)c(C)c3)nc2c1 (centres unmarked) [Compound H120, 2-[4-(5,7-dimethoxy-4-oxo-3,4-dihydro-quinazolin-2-yl)-2,6-dimethyl-phenoxy]-ethyl (6-nitroxy-hexahydrofuro[3,2-b]furan-3-yl)-carbamate] as the compound, how does the “Amount of Released No” value [2] read?
**A.** Its value is 1.32 µM.

**Q.** With COc1cc(OC)c2c(=O)[nH]c(-c3cc(C)c(OCCOC(=O)CCC(=O)ONS(=O)(=O)c4ccc(Cl)s4)c(C)c3)nc2c1 [Compound H121, 2-[4-(5,7-dimethoxy-4-oxo-3,4-dihydro-quinazolin-2-yl)-2,6-dimethyl-phenoxy]-ethyl 4-(((5-chlorothiophene)-2-sulfonylamino)oxy)-4-oxo-butyrate] as the compound, how does the “Molar Quantities of N2O/Sample” value [1] read?
**A.** Its value is 24.6%.

**Q.** For COc1cc(OC)c2c(=O)[nH]c(-c3cc(C)c(OCCO)c(C)c3)nc2c1 [Compound H130, 2-(4-(2-hydroxyethoxy)-3,5-dimethylphenyl)-5,7-dimethoxyquinazoline-4(3H)-one, reference compound], which “Amount of Released No” value [2] is on record?
**A.** The value was -1.03 µM.

**Q.** What about the “Molar Quantities of N2O/Sample” value [1] of the same compound?
**A.** Its value is −0.15%.

**Q.** What about the HNO release detected ([1]; within 1.5 h) of the same compound?
**A.** The HNO release detected was “no HNO release can be detected”.

**Q.** And the “Aorta eNOS” value (apoE−/− mice; [5])?
**A.** Its value is 105%.

**Q.** And the ApoA1 (apoE−/− mice; [5])?
**A.** The ApoA1 was 130%.

**Q.** And the “Heart eNOS” value (apoE−/− mice; [5])?
**A.** The value was 115%.

**Q.** What about the “Serum NO” value (apoE−/− mice; [5]) of the same compound?
**A.** The value was 108%.

**Q.** What about the “Serum eNOS” value (apoE−/− mice; [5]) of the same compound?
**A.** The value was 107%.

**Q.** And the HDL-C (apoE−/− mice; [6])?
**A.** The HDL-C was 86 ± 13 mg/dL.

**Q.** And the LDL-C (apoE−/− mice; [6])?
**A.** Its LDL-C is 273 ± 33 mg/dL.

**Q.** What about the TC (apoE−/− mice; [6]) of the same compound?
**A.** Its TC is 1005 ± 44 mg/dL.

**Q.** And the “Heart eNOS” value (db/db mice)?
**A.** Its value is 123%.

**Q.** What about the “Serum NO” value (db/db mice) of the same compound?
**A.** The value was 111%.
